Measurements taken from US20040171553A1, “Peptides fragments of colostrinin and their use” (priority 2000, published 2004).
Where “and” joins values, the source holds several entries; their conditions need not be identical. Equal entries are not always repeated.

Legend:
rabbits = assay: Serum antibody titre by ELISA after immunisation of rabbits with the KHL-conjugated synthetic peptide; assay type: in vivo, rabbit; details: ELISA against corresponding synthetic peptide antigen; for Titre: (Serum Dilution) Post Immunization R1: rabbit R1, after the 10 week immunisation protocol; for Titre: (Serum Dilution) Pre Immunization R1: rabbit R1, before immunisation
Protocol: To each N-terminal end of the synthetic peptides, L-cysteine was attached, and the peptide was formed into a ring so that the cysteine group lay between the N-terminal and the C-terminal ends of the synthetic peptide. This facilitated peptide conjugation with Keyhole Hemolymph (KHL).
For immunisation, two young adult rabbits (5-6 months old, weighing 5-6 lbs [2.3-2.7 kg]) were used. Each antigen (i.e., each synthetic peptide) was given subcutaneously and intramuscularly in 0.1 ml injections at ten different sites. The protocol used followed the following sequence:
The level of antibodies in the serum was established by ELISA (enzyme-linked immunosorbent assay) with the corresponding synthetic peptide antigen. This technique involved the following steps:
1. The antigen was diluted with a 0.1 M bicarbonate buffer (pH 9.0) to yield a 10 μg of antigen/ml solution. A volume of 50 μl of this solution was placed into each microwell of a 96 well plate.
2. The plates were covered and incubated at 37° C. for 3 hours.
3. The wells were washed with a coupling buffer and blocked using 200 μl of Pierce standard solution of BSA (bovine serum albumin).
4. 50 μl of dilutent BSA (0.75% soln.) was pipetted into each well. 50 μl of antibody serum sample diluted 1:100 in dilutent BSA were placed in lane A of each row.
5. 1:2 serial dilutions were performed moving down the plate.
6. The plates were covered and incubated at room temperature for 60 minutes.
7. The plates were washed four times with PBS wash solution.
8. A volume of 50 μl of goat anti-rabbit IgG (H&L) HRP conjugate at 1:1000 dilution in BSA was pipetted into each well and incubated at room temperature for 60 minutes (H&L=heavy and light chain; HRP=horseradish peroxidase).
9. The plates were washed four times with PBS wash solution.
10. A volume of 50 μl of substrate solution 2,2′-azino-bis(3-ethylbenzothiazoline-6-sulfonic acid)-diammonium salt (ABTS available from Pierce, which is used to help visualise the extent of the antibody/antigen reaction) was pipetted into each well and incubated at room temperature for about 2 minutes.
11. The reaction was stopped by adding 50 μl of 1% SDS (sodium dodecyl sulfate) into each well.
12. The wells were then read on a dynoplate reader at 405.
The data presented in Table 3 show the serum antibody titers against specific antibodies after the 10 week immunisation protocol.

[1] = tested on: beta-amyloid precursor protein; assay: Ischemia-induced beta-amyloid precursor protein accumulation in rats, immunostaining with monoclonal antibodies; assay type: in vivo; design: Jonas C-terminal APP / Beringer- terminal APP / 511-608 APP ALZ 90 / Total: scale not given here; details: ischemic rats; for β-amyloid plaque level, overall result in words: summary of Table 4; for Jonas C-terminal APP: C-terminal end of precursor protein; for Total: sum of the three APP immunostaining levels
Description: Ischemia was induced in rats in order to encourage the development of the beta-amyloid precursor proteins. The rats were then subjected to a variety of treatment regimes, and the degree of the beta-amyloid precursor protein presence was investigated. The general technique is described in “Complete cerebral ischemia with short-term survival in rats induced by cardiac arrest. I. Extracellular accumulation of Alzheimer's β-amyloid protein precursor in the brain.”, Pluta, R. et al, Brain Research 649 (1994) 323-328.
The treatment regime varied in terms of the length of time ischemia was induced, and the length of time treatment was applied.
The Colostrinin was obtained by conventional techniques, as described, for example, in WO98/14473. The peptides were produced using the method described in Example 1. The control was not subjected to any treatment.
Each column represents the results if the immunostaining with specific monoclonal antibodies directed against fragments of amyloid or its N and C precursor protein.

[2] = β-amyloid plaque level, immunostaining

Substance | Titre: (Serum Dilution) Post Immunization R1 (rabbits) | Titre: (Serum Dilution) Pre Immunization R1 (rabbits) | β-amyloid plaque level, overall result in words [1] | Beringer- terminal APP ([1]; β-amyloid plaque level, N-terminal end of precursor protein, immunostaining) | Jonas C-terminal APP [1, 2] | Total [1] | 511-608 APP ALZ 90 ([1]; β-amyloid plaque level, 511-608 position of precursor protein, immunostaining)
ESYVPLFP [Peptide 5] | 25600 | 0 | particularly good results | 2 and 4 | – | – | –
FLPVVN [Peptide 2] | 12800 | 0 | – | – | – | – | –
LLYQEPV [Peptide 6] | 25600 | 0 | – | – | – | – | –
LPLPLVRS [Peptide 10] | 25600 | 0 | – | – | – | – | –
PKLKVEVPEP [Peptide 4] | 25600 | 0 | – | – | – | – | –
PLPPTVMFPPQ [Peptide 8] | 25600 | 0 | – | – | – | – | –
PVLPVEPFPF [Peptide 3] | 12800 | 0 | particularly good results | – | 1 and 2 | – | –
PVVVPPFLQ [Peptide 9] | 25600 | 0 | – | – | 3 and 2 | 8 and 5 and 6 | –
QPKVLPVPQ [Peptide 7] | 25600 | 0 | – | – | 3 | 11 and 10 and 9 | 4 and 5
QPLLQVMMEPQ [Peptide 1] | 12800 | 0 | particularly good results | – | 1 and 2 | – | –
